We go through 43 compounds from patent publication US8778966B2, “Quinolinone derivatives as PARP and tank inhibitors” (Janssen Pharmaceutica, NV, priority 2007, dated 2014).

The subject of one assay is tubulin. Put plainly: Tubulin polymerization assay. It is filed as biochemical. Also noted: key: a compound showing 0 to 50% inhibition at 20 μM is reported as score 1; Score 2 compounds are defined as compound showing more than 50% inhibition at 20 μM and less than 50% inhibition at 5 μM; a compound showing more than 50% inhibition at 5 μM is reported as score 3. The note with it: tested at 20 μM and 5 μM. Here is the method: The tubulin polymerization assay is an adaptation of an assay originally described by Bonne, D. et al. (J. Biol. Chem., 1985, 260:2819-25). The assay kit was purchased from Cytoskeleton, Inc. (catalogue number BK011) and the assay was performed as described by the supplier with the following modifications. The assay was run in a 384-well black Proxiplate (Perkin Elmer) and volumes were adapted accordingly. The reactions were carried out in a final volume of 10 μl. Compounds were added to 25 μl of the reaction mix in 96-well PP plates (Corning) on ice and 10 μl of this mixture was dispensed into duplicates of the 384-well Proxiplates pre-warmed to 37° C. in a Fluoroskan Ascent plate reader (Thermo Scientific). Fluorescence measurements were taken every minute for one hour. The maximum slope of each well was determined (linear regression through 4 consecutive points) and polymerization was calculated as a percentage of polymerization observed in the absence of compound. Compounds were first measured at a concentration of 20 μM and then at 5 μM for those showing more than 50% inhibition at 20 μM as compared to the polymerization observed in the absence of compound. Results are reported in Table F-2 as scores defined as: a compound showing 0 to 50% inhibition at 20 μM is reported as score 1; a compound showing more than 50% inhibition at 5 μM is reported as score 3.

The target of a further assay is T1, TANK-2 enzyme (Homo sapiens, UniProt Q9H2K2).
T1 construct: made in house
T1 sequence (Q9H2K2 1-1166): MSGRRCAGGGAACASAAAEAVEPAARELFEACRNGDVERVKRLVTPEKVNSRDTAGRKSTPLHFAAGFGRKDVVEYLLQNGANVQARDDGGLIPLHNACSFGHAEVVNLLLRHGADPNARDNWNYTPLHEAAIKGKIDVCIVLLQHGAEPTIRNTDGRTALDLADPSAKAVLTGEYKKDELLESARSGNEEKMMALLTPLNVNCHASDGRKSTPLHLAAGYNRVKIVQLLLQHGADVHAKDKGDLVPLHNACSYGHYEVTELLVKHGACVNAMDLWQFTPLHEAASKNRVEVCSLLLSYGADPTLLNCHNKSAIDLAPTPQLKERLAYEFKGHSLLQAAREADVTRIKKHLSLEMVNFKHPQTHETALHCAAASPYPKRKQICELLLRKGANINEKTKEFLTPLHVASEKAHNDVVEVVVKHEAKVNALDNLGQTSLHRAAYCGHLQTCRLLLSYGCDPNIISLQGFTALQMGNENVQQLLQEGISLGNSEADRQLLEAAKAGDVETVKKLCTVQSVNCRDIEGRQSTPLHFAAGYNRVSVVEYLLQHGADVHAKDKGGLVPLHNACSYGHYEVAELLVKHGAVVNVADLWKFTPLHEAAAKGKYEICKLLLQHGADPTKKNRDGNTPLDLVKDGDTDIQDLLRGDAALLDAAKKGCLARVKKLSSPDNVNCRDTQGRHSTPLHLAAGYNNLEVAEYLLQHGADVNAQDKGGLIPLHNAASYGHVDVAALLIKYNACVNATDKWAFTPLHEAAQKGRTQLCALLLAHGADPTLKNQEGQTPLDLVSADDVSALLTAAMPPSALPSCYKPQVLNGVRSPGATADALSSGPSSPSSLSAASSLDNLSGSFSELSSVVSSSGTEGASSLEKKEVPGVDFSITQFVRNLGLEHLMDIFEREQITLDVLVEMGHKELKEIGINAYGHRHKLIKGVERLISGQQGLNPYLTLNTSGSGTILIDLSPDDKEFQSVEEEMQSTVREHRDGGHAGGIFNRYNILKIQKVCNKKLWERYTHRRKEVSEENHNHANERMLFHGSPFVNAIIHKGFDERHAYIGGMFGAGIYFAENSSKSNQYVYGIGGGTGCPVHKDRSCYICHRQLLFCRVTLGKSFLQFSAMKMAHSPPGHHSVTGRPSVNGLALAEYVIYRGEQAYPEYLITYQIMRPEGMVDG
Put plainly: In vitro Scintillation Proximity Assay (SPA) for TANK-2 inhibitory activity. To be noted: read-out: in vitro SPA assay TANK-2 pIC50 (converted). The format is biochemical. In a few lines: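 Results are pIC50 values, with IC50 interpolated linearly around 50% of blank-subtracted control cpm. They come from a scintillation proximity read of TANK-2 (8 μg/ml) self-modification with [3H]-NAD+/NAD, incubated 120 min at room temperature in pH 7.4 Tris buffer containing MgCl2 and DTT. Compounds were first screened at 10^−5 M.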

SMILES strings stand for the structures.

`CCc1cc2ccc(C(C)(C#N)Cc3cc(C)nc(C#N)c3)cc2[nH]c1=O` (stereo not shown) [Compound 328]: the tubulin polymerisation score in the assay on tubulin is 2. On TANK-2 enzyme, the IC50 is 20 nM. In the same order, the values of `CCc1cc2ccc(C(C)(C#N)Cc3ccnc(C#N)c3)cc2[nH]c1=O` (stereo not shown) [Compound 324] are 1 (a compound showing 0 to 50% inhibition at 20 μM is reported as score 1) and 20 nM.

For `Cc1cc2ccc(C(C)(C#N)Cc3cccc(C#N)n3)cc2[nH]c1=O` (stereo not shown) [Compound 227], at TANK-2 enzyme, the IC50 is 316 nM. The same measure, in the same setting: as for `CCc1cc2ccc(C(C#N)(CC)Cc3cccc(CN)c3)cc2[nH]c1=O` (stereo not shown) [Compound 390], the figure is 316 nM; as for `CCc1cc2ccc(C(C)(C#N)CCOc3nccc(OC)n3)cc2[nH]c1=O` (stereo not shown) [Compound 223], 794 nM; as for `Cc1cc2ccc([C@@](C)(C#N)[C@@H]3CCCc4ccccc43)cc2[nH]c1=O` [Compound 382], 2000 nM. Still for that read-out and setting: as for `CCc1cc2ccc(C(C)(C#N)CN(C)CCc3cn(C)c4ccccc34)cc2[nH]c1=O` (stereo not shown) [Compound 303], the figure is 126 nM.

Consider `CCc1cc2ccc(C(C)(C#N)C3CCc4ccc(Br)cc43)cc2[nH]c1=O` (single isomer, unassigned) [Compound 381], for which the IC50 on TANK-2 enzyme is 1260 nM.

As for `CCc1cc2ccc(C(C)(C#N)Cc3cc(C)nc(Cl)c3)cc2[nH]c1=O` (stereo not shown) [Compound 326], the IC50 on TANK-2 enzyme is 398 nM. For `CCc1cc2ccc(C(C)(C#N)CC3Oc4ccccc4O3)cc2[nH]c1=O` (stereo not shown) [Compound 398], the tubulin polymerisation score in the assay with tubulin stood at 2. The IC50 at TANK-2 enzyme is 501 nM. `Cc1cc2ccc(C(C)(C#N)CCCCOc3ccccc3)cc2[nH]c1=O` (stereo not shown) [Compound 272]: on TANK-2 enzyme, the IC50 was 501 nM. The same measure, in the same setting: under `CCc1cc2ccc(C(C)(C#N)Cc3cc(C)cc(Br)c3)cc2[nH]c1=O` (stereo not shown) [Compound 284] stands 501 nM. `CCc1cc2ccc(C(C)(C#N)Cc3cc(F)cc(F)c3)cc2[nH]c1=O` (stereo not shown) [Compound 402]: the tubulin polymerisation score in the assay with tubulin is on record as 1 (a compound showing 0 to 50% inhibition at 20 μM is reported as score 1). The IC50 at TANK-2 enzyme was 126 nM. Consider `Cc1cc2ccc(C(C)(C#N)Cc3cc(F)cc(F)c3)cc2[nH]c1=O` (stereo not shown) [Compound 282], for which the IC50 at TANK-2 enzyme was 794 nM. `CCC(=O)c1cccc(CC(C)(C#N)c2ccc3cc(C)c(=O)[nH]c3c2)c1` (stereo not shown) [Compound 173]: the tubulin polymerisation score in the assay with tubulin is listed as 3 (a compound showing more than 50% inhibition at 5 μM is reported as score 3). Further, the IC50 on TANK-2 enzyme was 1260 nM. For `CCc1cc2ccc(C(C)(C#N)Cc3nc(C)cc(OC)n3)cc2[nH]c1=O` (stereo not shown) [Compound 371], in that order: 1 (a compound showing 0 to 50% inhibition at 20 μM is reported as score 1) and 126 nM. For `CCc1cc2ccc(C(C)(C#N)Cc3cccc(F)n3)cc2[nH]c1=O` (stereo not shown) [Compound 331], in that order: 2 and 79.4 nM. As for `Cc1cc2ccc(C(C)(C#N)Cc3cccc(Oc4ncccn4)c3)cc2[nH]c1=O` (stereo not shown) [Compound 191], the IC50 on TANK-2 enzyme is 1580 nM. On the same count and under the same terms, as for `CCc1cnc(OCCC(C)(C#N)c2ccc3cc(CC)c(=O)[nH]c3c2)nc1` (stereo not shown) [Compound 222], the figure is 100 nM. Consider `CCc1cc2ccc(C(C)(C#N)Cc3cc(F)cc(C#N)c3)cc2[nH]c1=O` (stereo not shown) [Compound 266], for which the tubulin polymerisation score in the assay on tubulin is listed as 3 (a compound showing more than 50% inhibition at 5 μM is reported as score 3). Further, the IC50 at TANK-2 enzyme was 25.1 nM. For `CCc1cc2ccc([C@](C)(C#N)[C@H]3CCOc4ccccc43)cc2[nH]c1=O` (single isomer, unassigned) [Compound 394], in that order: 1 (a compound showing 0 to 50% inhibition at 20 μM is reported as score 1) and 1000 nM. With `Cc1cc2ccc([C@](C)(C#N)[C@@H]3CCc4cc(Br)ccc43)cc2[nH]c1=O` [Compound 242], the IC50 at TANK-2 enzyme is 7940 nM. As for `CCc1cc2ccc(C(C)(C#N)CCOc3ccnc(SC)n3)cc2[nH]c1=O` (stereo not shown) [Compound 348], the IC50 on TANK-2 enzyme is 200 nM. Same read-out and setting: under `CCc1cc2ccc(C(C)(C#N)C3CCc4ccc(Br)cc43)cc2[nH]c1=O` (single isomer, unassigned) [Compound 380] stands 2510 nM; under `Cc1cc2ccc([C@](C)(C#N)C3CCc4cccnc43)cc2[nH]c1=O` (single isomer, unassigned) [Compound 388], 631 nM. Same read-out and setting: under `CCc1cc2ccc(C(C#N)(CC)Cc3cccc(F)c3)cc2[nH]c1=O` (stereo not shown) [Compound 270] stands 316 nM. Take `CCc1cc2ccc([C@](C)(C#N)C[C@H]3CCc4ccccc4O3)cc2[nH]c1=O` (single isomer, unassigned) [Compound 396]: the IC50 on TANK-2 enzyme was 158 nM.

As for `Cc1cc2ccc([C@](C)(C#N)[C@@H]3CCc4ccc(Br)cc43)cc2[nH]c1=O` [Compound 406], on TANK-2 enzyme, the IC50 was 5010 nM. On the same count and under the same terms, under `CCc1cc2ccc(C(C)(C#N)Cc3ccnc(F)c3)cc2[nH]c1=O` (stereo not shown) [Compound 330] stands 398 nM; under `CCOc1cc(N(C)C)nc(CC(C)(C#N)c2ccc3cc(CC)c(=O)[nH]c3c2)n1` (stereo not shown) [Compound 312], 100 nM. Still for that read-out and setting: under `Cc1cc2ccc(C(C)(C#N)Cc3cccc(Oc4ccccn4)c3)cc2[nH]c1=O` (stereo not shown) [Compound 304] stands 1000 nM. Still for that read-out and setting: under `C=C(C)c1cccc(CC(C)(C#N)c2ccc3cc(CC)c(=O)[nH]c3c2)c1` (stereo not shown) [Compound 254] stands 251 nM; under `Cc1cc2ccc([C@@](C)(C#N)[C@H]3CCc4cc(Br)ccc43)cc2[nH]c1=O` [Compound 241], 6310 nM.

`Cc1cc2ccc([C@@](C)(C#N)[C@H]3CCc4ccc(Br)cc43)cc2[nH]c1=O` [Compound 405]: on TANK-2 enzyme, the IC50 was 5010 nM.

Regarding `Cc1cc2ccc([C@](C)(C#N)[C@H]3CCc4ccc(Br)cc43)cc2[nH]c1=O` [Compound 407], the IC50 on TANK-2 enzyme is 6310 nM. Same read-out and setting: as for `Cc1cc2ccc(C(C)(C#N)C3CCc4c(C#N)cccc43)cc2[nH]c1=O` (racemic) [Compound 393], the figure is 794 nM. On the same count and under the same terms, as for `Cc1cc2ccc(C(C)(C#N)C3CCc4ccc(C#N)cc43)cc2[nH]c1=O` (stereo not shown) [Compound 250], the figure is 398 nM; as for `Cc1cc2ccc([C@@](C)(C#N)[C@@H]3CCc4cc(Br)ccc43)cc2[nH]c1=O` [Compound 240], 6310 nM; as for `Cc1cc2ccc(C(C)(C#N)C3CCc4c(Br)cccc43)cc2[nH]c1=O` (stereo not shown) [Compound 248], 1260 nM.

Take `CCc1cc2ccc(C(C)(C#N)Cc3ccnc(Cl)c3)cc2[nH]c1=O` (stereo not shown) [Compound 341]: the IC50 on TANK-2 enzyme was 79.4 nM. Same read-out and setting: under `Cc1cc2ccc(C(C)(C#N)Cc3cccc(Oc4ccccc4)n3)cc2[nH]c1=O` (stereo not shown) [Compound 193] stands 631 nM; under `Cc1cc2ccc(C(C)(C#N)C3CCc4cc(Br)ccc43)cc2[nH]c1=O` (stereo not shown) [Compound 244], 7940 nM.

As for `CCc1cc2ccc(C(C#N)(CC)C3CCc4ccc(OC)cc43)cc2[nH]c1=O` (stereo not shown) [Compound 403], the IC50 on TANK-2 enzyme was 2510 nM.
